The nature of this series: Solubility of RAPA in the drug solvent of the stock solution. The series is classed as physicochemical. The note with it: organic solvent or mixture; drug solvent of two or more solvents (absolute ethanol and latent solvent). The text has this:
In the RAPA self-microemulsifying injection of the present disclosure, the drug solvent includes absolute ethanol and a latent solvent, and the latent solvent is one or more selected from the group consisting of propylene glycol (PG), polyethylene glycol (PEG) 300, and PEG 400. The drug solvent of the present disclosure is a mixed solvent of two or more solvents in different proportions to dissolve RAPA, which can greatly improve the solubility of RAPA.

For orientation: solubility means how much of the substance goes into solution per volume.

As to `CO[C@H]1C[C@@H]2CC[C@@H](C)[C@@](O)(O2)C(=O)C(=O)N2CCCC[C@H]2C(=O)O[C@H]([C@H](C)C[C@@H]2CC[C@@H](O)[C@H](OC)C2)CC(=O)[C@H](C)/C=C(\C)[C@@H](O)[C@@H](OC)C(=O)[C@H](C)C[C@H](C)/C=C/C=C/C=C/1C` [RAPA, rapamycin], the solubility is ≤ 60 mg/mL.

For the origin of these results see US12357618B2, “Rapamycin (RAPA) self-microemulsifying injection and preparation method and use thereof” (priority 2022, dated 2025).
